Results reported in ChEMBL document CHEMBL4325834, “De Novo Molecular Design of a Novel Octapeptide That Inhibits In Vivo Melanogenesis and Has Great Transdermal Ability” (J Med Chem, 2018).
Active and inactive are the calls of the source. The calls are words filed in the database; no cut-off is given here. Where a SMILES comes first, the peptide text is derived from it.

Legend:
Tyrosinase = molecular target: T1, Tyrosinase (Agaricus bisporus, UniProt O42713); test: Inhibition of mushroom tyrosinase using L-dopa as substrate assessed as reduction in dopachrome production after 20 mins by spectrophotometry
T1 sequence (O42713 whole entry): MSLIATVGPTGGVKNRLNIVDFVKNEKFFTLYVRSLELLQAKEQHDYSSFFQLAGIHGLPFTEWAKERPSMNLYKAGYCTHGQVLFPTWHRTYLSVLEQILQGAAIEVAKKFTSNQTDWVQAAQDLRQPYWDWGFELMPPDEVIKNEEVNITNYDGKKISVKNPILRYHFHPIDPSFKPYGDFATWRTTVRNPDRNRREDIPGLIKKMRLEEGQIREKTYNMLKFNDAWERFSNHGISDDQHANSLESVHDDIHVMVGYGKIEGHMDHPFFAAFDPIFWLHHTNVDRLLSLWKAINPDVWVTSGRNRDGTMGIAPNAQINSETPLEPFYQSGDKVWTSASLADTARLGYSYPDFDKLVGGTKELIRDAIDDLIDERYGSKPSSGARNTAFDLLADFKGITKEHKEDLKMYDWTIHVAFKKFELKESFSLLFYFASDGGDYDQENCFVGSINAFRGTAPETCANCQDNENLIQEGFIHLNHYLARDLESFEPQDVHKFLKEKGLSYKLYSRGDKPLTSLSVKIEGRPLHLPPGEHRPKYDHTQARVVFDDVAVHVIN

[1] = molecular target: T2, Tyrosinase (Mus musculus) (UniProt P11344); test: Inhibition of TYR activity in mouse B16 cells assessed as melanin levels post exfoliation at 20 uM after 72 hrs by spectrophotometric analysis relative to control; format: cell-based; parameters: scale not given: the % may be the effect or the level left
T2 sequence (whole entry): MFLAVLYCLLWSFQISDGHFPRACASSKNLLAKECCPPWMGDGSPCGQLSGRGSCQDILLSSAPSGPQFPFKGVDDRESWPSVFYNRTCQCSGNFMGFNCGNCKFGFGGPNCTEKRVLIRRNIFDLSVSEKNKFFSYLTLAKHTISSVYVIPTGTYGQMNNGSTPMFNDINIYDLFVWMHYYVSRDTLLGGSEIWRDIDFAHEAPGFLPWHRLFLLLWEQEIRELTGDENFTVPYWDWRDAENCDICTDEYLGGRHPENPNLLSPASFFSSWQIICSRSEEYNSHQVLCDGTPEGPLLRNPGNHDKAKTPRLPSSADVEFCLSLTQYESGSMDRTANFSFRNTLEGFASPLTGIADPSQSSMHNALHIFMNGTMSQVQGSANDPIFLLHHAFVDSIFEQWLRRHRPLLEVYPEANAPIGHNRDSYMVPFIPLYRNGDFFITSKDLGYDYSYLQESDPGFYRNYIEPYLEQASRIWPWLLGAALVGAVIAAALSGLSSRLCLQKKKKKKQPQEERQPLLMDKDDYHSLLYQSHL

[2] = molecular target: T2, Tyrosinase (Mus musculus); test: Inhibition of TYR activity in mouse B16 cells 20 uM using L-dopa as substrate after 72 hrs relative to control; format: cell-based
[3] = Hemolytic activity against human erythrocytes assessed as amount of hemoglobin released from lysed cells up to 150 uM relative to control; format: ADME, cell-based, Erythrocyte; settings: read-out: Activity
[4] = molecular target: T3, Tyrosinase (Agaricus bisporus) (UniProt O42713); test: Inhibition of mushroom tyrosinase using L-dopa as substrate assessed as reduction in L-dopa oxidation at IC50 by spectrophotometry
T3 sequence (whole entry): T1 sequence (O42713 whole entry)

[5] = molecular target: T2, Tyrosinase (Mus musculus); test: Inhibition of TYR activity in mouse B16 cells assessed as effect on pallet after exfoliation at 20 uM preincubated for 72 hrs followed L-dopa substrate addition and measured after 4 hrs by fluorescence microscopy; format: cell-based
B16 [6] = test: Cytotoxicity against mouse B16 cells up to 150 uM by MTT assay relative to control; format: cell-based
[7] = molecular target: T2, Tyrosinase (Mus musculus); test: Inhibition of TYR activity in mouse B16 cells assessed as increase in whitening at 20 uM preincubated for 72 hrs followed L-dopa substrate addition and measured after 4 hrs by fluorescence microscopy; format: cell-based
B16 [8] = test: Downregulation of MITF protein expression in mouse B16 cells after 72 hrs by Western blot analysis; format: functional, cell-based
[9] = Reducing power of the compound assessed as reducing Fe3+ power at 80 uM using K3Fe(CN)6 in pH 6.6 phosphate buffer relative to control
[10] = molecular target: T2, Tyrosinase (Mus musculus); test: Inhibition of TYR activity in mouse B16 cells assessed as reduction in melanin levels at 20 uM after 24 hrs by spectrophotometric analysis relative to control; format: cell-based
B16 [11] = test: Downregulation of TYR protein expression in mouse B16 cells after 72 hrs by Western blot analysis; format: functional, cell-based
[12] = Antioxidant activity assessed as DPPH free radical scavenging activity at 80 uM after 30 mins relative to control; format: functional
[13] = Antioxidant activity assessed as ABTS radical scavenging activity at 80 uM after 10 mins relative to control; format: functional
[14] = molecular target: T3, Tyrosinase (Agaricus bisporus); test: Potency index, ratio of IC50 for arbutin to IC50 for test compound for inhibition of mushroom tyrosinase using L-dopa as substrate assessed as reduction in dopachrome production after 20 mins by spectrophotometry
HaCaT = test: Cytotoxicity against human HaCaT cells up to 150 uM by MTT assay relative to control; format: cell-based

| IC50 (Tyrosinase) | Activity [1] | inhibition [2] | inhibition [4] | Activity [5] | inhibition [7] | inhibition [10] | Ratio IC50 [14] | Compound | hemolysis [3] | Activity (B16 [6]) | inhibition (B16 [8]) | Activity [9] | inhibition (B16 [11]) | Activity [12] | Activity [13] | Activity (HaCaT) |
| --- | --- | --- | --- | --- | --- | --- | --- | --- | --- | --- | --- | --- | --- | --- | --- | --- |
| 73 µM | 63.5% | 16% | Active | Active | Active | Active | 10 | CC(C)[C@H](NC(=O)[C@H](CO)NC(=O)[C@H](CCCNC(=N)N)NC(=O)[C@H](CS)NC(=O)[C@@H](NC(=O)[C@H](CCCNC(=N)N)NC(=O)[C@@H](N)Cc1ccccc1)[C@@H](C)O)C(=O)N[C@@H](CS)C(=O)O (H-FRTCRSVC-OH) | 3% | 3% | Active | 0.25 | Active | 94% | 84% | 2% |
| – | 76.3% | 10.4% | – | Active | Active | – | – | OC[C@H]1O[C@@H](Oc2ccc(O)cc2)[C@H](O)[C@@H](O)[C@@H]1O [ARBUTIN] | 27% | 29% | inactive | 0.12 | inactive | 22% | 53% | 31% |
